EC50 data for one compound are collected here from patent publication US11306111B2, “Organophosphate derivatives” (January Therapeutics, Inc., priority 2017, dated 2022).

Structures can show the parent of a compound that is named as a salt.

This experiment relates to BxPC-3 cells. Kind of experiment: Cellular proliferation assay in BxPC-3 cells (Cell-Titer Glo, 120 h). Format: cell-based. To be noted: Homo sapiens, 120 h incubation, Cell-Titer Glo luminescence. The procedure: Compounds are tested for their ability to impair cancer cell proliferation and/or induce cell death. For cellular proliferation studies, cultured cells are treated with the test compound for 24-120 hours. After compound treatment, cell proliferation is assessed by using methods including, but not limited to, Cell-Titer-Glo® (Promega), Alamar Blue, LIVE/DEAD® (ThermoFisher), BrdU incorporation, and live-cell imaging.
The cancer lines used include, but are not limited to, PANC-1, MiaPaCa-2, BxPC-3 (pancreatic cancer), RT112 (bladder cancer), MCF-7 (breast cancer), and A549 (non-small cell lung cancer). Gemcitabine Hydrochloride serves as a control for activity.
Protocol for the Cellular Proliferation Assay in BxPC-3 Cells
BxPC-3 (pancreatic adenocarcinoma) cell line was purchased from the American Type Culture Collection (Catalog #CRL-1687) and grown in RPMI-1640 medium (e.g. Corning #10-040-CV) with 10% Heat Inactivated Fetal Calf Serum at 37° C. and 5% CO2 (as recommended by the ATCC).
Cultures were grown in […] plates to 80% confluence, and cells were trypsinized to a single-cell suspension. Cells were then resuspended in growth medium to a density of […]. They were then plated into 96-well assay plates (Corning #3917) in a volume of 100 ul/well (2,500 cells/well). Cells were allowed to adhere to plates for 24 h at 37° C. and 5% CO2). Compounds were then added to the wells using an […] serial dilution scheme (over 9 dilutions, generally ranging from 30 μM-30 pM), and the cells were incubated for an additional 120 hours. After 120 h, 90 ul of Cell-Titer Glo reagent (Promega #G7572) was added, and the plates were read using a luminescence counter (e.g., BioTek Synergy HTX at 100 ms read time).

Take `Nc1ccn([C@@H]2O[C@H](CO)[C@@H](O)C2(F)F)c(=O)n1` [Gemcitabine Hydrochloride, 2′,2′-difluoro-2′-deoxycytidine, reference compound]: the EC50 fell in the range of 1 to 100 nM.
